# Source: US20260152490A1, “METHYLLACTAM RING COMPOUND AND PHARMACEUTICAL USE THEREOF” (Japan Tobacco Inc., priority 2018, published 2026)
# Columns and labels:
# Escherichia coli WP2uvrA = assay: Ames test (reverse mutation test), WP2uvrA; type: cell-based; conditions: without S9 mix, 0.01 μg/plate, positive control
# Description: (§1) Metabolite 1 and Metabolite C were each tested herein.
# (§2) Two plates per treatment were used.
# glucose-loaded SD rats [1] = assay: OGTT (Oral Glucose Tolerance Test), Test Example 3; type: in vivo; conditions: male SD rat, 3 mg/kg orally, glucose load after 16 hours, to 120 minutes, compared to vehicle
# Experimental: Vehicle (0.5% methylcellulose solution) or Compound 1, Compound A, or Compound B (3 mg/kg each) suspended in a 0.5% methylcellulose solution was orally administered in 5 mL/kg to an about 4-hour-fasted male SD rat (8-week old, Nihon Charles River K.K., 5 cases for each group).
# Statistical analyses were based on Dunnett's multiple group test. The significance level was two-sided 5%.
# glucose-loaded SD rats [2] = assay: OGTT (Oral Glucose Tolerance Test), Test Example 2; type: in vivo; conditions: male SD rat, 1, 3, or 10 mg/kg orally, glucose load after 16 hours, to 120 minutes, compared to vehicle
# Experimental: Vehicle (0.5% methylcellulose solution) or Compound 1 (1, 3, or 10 mg/kg) suspended in a 0.5% methylcellulose solution was orally administered in 5 mL/kg to an about 4-hour-fasted male SD rat (8-week old, Nihon Charles River K.K., 6 cases for each group).
# Statistical analyses were based on Steel's multiple test. The significance level was two-sided 5%.
# [3] = test system: Salmonella typhimurium TA1535; assay: Ames test (reverse mutation test), TA1535; type: cell-based; conditions: TA1535, with S9 mix, 2.0 μg/plate, positive control
# Description: as §1, §2
# [4] = test system: Salmonella typhimurium (TA98, TA1537, TA100, and TA1535) and Escherichia coli (WP2uvrA); assay: Ames test (reverse mutation test), all tester strains: overall conclusion and precipitation; type: cell-based; set-up: key to Precipitation: * Growth inhibition; †: Precipitation
# Description: as §1, §2
# [5] = test system: Salmonella typhimurium TA100; assay: Ames test (reverse mutation test), TA100; type: cell-based; conditions: TA100 with S9 mix
# Description: as §1, §2
# [6] = test system: Salmonella typhimurium TA98; assay: Ames test (reverse mutation test), TA98; type: cell-based; conditions: TA98 with S9 mix
# Description: as §1, §2
smiles,measurement,setting,value
"NC(=O)C(=Cc1ccc([N+](=O)[O-])o1)c1ccco1 [AF-2, 2-(2-Furyl)-3-(5-nitro-2-furyl)acrylamide]",Number of revertant colonies,Escherichia coli WP2uvrA; Table 4,69
same,Number of revertant colonies,Escherichia coli WP2uvrA; Table 7,74
"C[C@H]1C(=O)NC[C@@H]1C(=O)Nc1cc(-c2cc(F)cc(OC(C)(C)C)c2)n(C(F)(F)F)n1 [Compound 1, (3R,4R)—N-(5-(3-(tert-butoxy)-5-fluorophenyl)-1-(trifluoromethyl)-1H-pyrazol-3-yl)-4-methyl-5-oxopyrrolidine-3-carboxamide]","blood glucose level after the glucose load (A AUC, % of Vehicle)",glucose-loaded SD rats [1],significantly reduced the blood glucose level
same,"blood glucose level after the glucose load (Δ AUC, % of Vehicle)",glucose-loaded SD rats [2],significantly reduced the blood glucose level
"Nc1ccc2cc3ccccc3cc2c1 [Compound 2AA, 2-Aminoanthracene]",Number of revertant colonies,[3]; Table 2,223
same,Number of revertant colonies,[3]; Table 6,250
CC(C)(C)Oc1cc(F)cc(-c2cc(N)nn2C(F)(F)F)c1 [Metabolite 1],potential to induce reverse mutations,"[4]; any of the bacterial tester strains, presence or absence of S9 mix",did not have potential to induce reverse mutations
same,Precipitation,"[4]; with S9 mix, 556 μg/plate, Table 1 (TA98, TA100)",†
same,Precipitation,"[4]; with S9 mix, 1667 μg/plate, Table 1 (TA98, TA100)",†
same,Precipitation,"[4]; with S9 mix, 5000 μg/plate, Table 1 (TA98, TA100)",†
same,Precipitation,"[4]; with S9 mix, 5000 μg/plate, Table 2 (TA1537, TA1535, WP2uvrA)",†
same,Precipitation,"[4]; without S9 mix, 5000 μg/plate, Table 4 (all five strains)",†
CC(C)(C)Oc1cccc(-c2cc(N)nn2-c2ccccc2)c1 [Metabolite C],potential to induce reverse mutations,[5],had potential to induce reverse mutations
same,potential to induce reverse mutations,[6],had potential to induce reverse mutations
same,Precipitation,"[4]; with S9 mix, 556 μg/plate, Table 6 (TA1537, TA1535, WP2uvrA)",†
same,Precipitation,"[4]; with S9 mix, 1667 μg/plate, Table 6 (TA1537, TA1535, WP2uvrA)",†
same,Precipitation,"[4]; with S9 mix, 5000 μg/plate, Table 6 (TA1537, TA1535, WP2uvrA)",†
same,Precipitation,"[4]; without S9 mix, 556 μg/plate, Table 7 (all five strains)",†
same,Precipitation,"[4]; without S9 mix, 1667 μg/plate, Table 7 (all five strains)",†
same,Precipitation,"[4]; without S9 mix, 5000 μg/plate, Table 7 (all five strains)",†
